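Growth conditions: 96-well plates. Treatment: test compound, 48 hours, 5 concentrations. Analysis: linear interpolation between bracketing concentrations; unreached endpoints set to highest concentration. Definition used: TGI = concentration required for complete inhibition of growth.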
What was measured:
Assay in all cases: growth of human tumour cells (NCI), 48 h
CAKI-1 renal = test system: CAKI-1 renal
COLO 205 colon = test system: COLO 205 colon
HS 578T breast = test system: HS 578T breast
K-562 leukemia = test system: K-562 leukemia
MCF7 breast = test system: MCF7 breast
OVCAR-5 ovarian = test system: OVCAR-5 ovarian
SNB-75 CNS = test system: SNB-75 CNS
SR leukemia = test system: SR leukemia
U251 CNS = test system: U251 CNS
UACC-62 melanoma = test system: UACC-62 melanoma

Measured: TGI

c1ccc(CN[C@]23C4C5CC6C7C5C2C7[C@@](NCc2ccccc2)(C64)N3Cc2ccccc2)cc1 (stereo not given in full)
> 100 µM: all assays above

CSCCCS/C1=C/CCCCCCCCCC1
> 100 µM: all assays above

Source: PubChem BioAssay (NCI)
